Values of other authors in patent US20050032747A1, “COX-2 and FAAH inhibitors” (priority 2003, published 2005).

System: prostaglandin synthesis
Settings: reported by Shen et al. 1977

## Cc1c(CC(=O)O)c2cc(O)ccc2n1C(=O)c1ccc(Cl)cc1 [desmethylindomethacin, O-desmethylindomethacin]
  ability to inhibit prostaglandin synthesis: some ability to inhibit prostaglandin synthesis
